Data as given in patent US7078389B2, “Chemically modified oligonucleotide for site-directed mutagenesis” (priority 1993, dated 2006).
Entries after “also recorded” stand apart in the source; their conditions may differ. {Pso} = 4'-hydroxymethyl-4,5',8-trimethylpsoralen through a two-carbon linker arm and a phosphodiester

Columns and labels:
[1] = system: supF gene (250 bp fragment); assay: Triplex binding assay (32P-labelled oligonucleotide, gel electrophoresis); parameters: species or system E. coli; conditions: for Binding of oligonucleotide to supF gene fragment: 32P-labelled oligomer 6×10^−8 M, oligomer:supF about 1:1, 2 hours at 37 degrees; for Competition with 32P-labelled AG10 for binding to supF: unlabelled competitor at 200-fold molar excess
Procedure: The target gene chosen was supF, an E. coli amber suppressor tyrosine tRNA gene, contained within the genome of a lambda phage vector, lambda supF as shown in FIG. 1. A 10 base homopurine oligonucleotide AG10 (5′AGGAAGGGGG 3′) capable of forming a triple strand at positions 167–176 in the supF gene was identified.
The 250 bp supF target was generated from lambda supF using the polymerase chain reaction. Each oligo (200 ng) was labelled with 50 μCi of gamma-^32P-ATP (Amersham, Arlington Heights, Ill.) and separated from unreacted gamma^32P-ATP by passage through a G-25 spin column (Boehringer Mannheim, Indianapolis, Ind.). The concentration of oligomer in the reaction mixture was 6×10^−8 M and the oligomer:supF ratio was approximately 1:1 on a molar basis. When present, competitors were used at 200-fold molar excess.
Following the 2 hour binding step, reaction mixtures were run on a 4% acrylamide gel in 90 mM Tris base, 90 mM boric acid, 20 mM MgCl2 with a 20% acrylamide plug. A 100 bp ladder (BRL, Bethesda, Md.) was end-labelled as described for oligomers and run on gels as a size reference. Following a 4 hour run at constant voltage (150 V), the gel was visualized by autoradiography for 1 hour using Kodak X-AR film. […] To assay for triplex formation, ^32P-labeled oligonucleotides, either AG10 (^5 AGGAAGGGGG^3) (SEQ ID NO:2) or the reverse sequence oligomer (GA10), were incubated with a […] double-stranded fragment containing the entire supF gene. The products of the binding reactions were visualized by polyacrylamide gel electrophoresis and autoradiography.
When no supF target DNA was present, there was no band observed at this position. […] In lanes 5–8, no binding of the ^32P-labelled GA10 to supF was detected: GA10 alone without supF; GA10 plus supF; GA10 plus supF with excess unlabelled GA10; GA10 plus supF with excess AG10.

supF gene = conditions: free psoralen plus UVA, published data, FIG. 2B/5B; cited from earlier work

Molecule	Binding of oligonucleotide to supF gene fragment [1]	Competition with 32P-labelled AG10 for binding to supF [1]	Occurrence of supF mutations at base pair 167 (supF gene)
5′ GGGGGAAGGA 3′ (DNA, 5' {Pso}, backbone not given here; triplex-forming reverse control oligonucleotide) [GA10]	no binding; also recorded: failed to bind to supF; also recorded: did not bind	did not compete with AG10; also recorded: failed to bind to supF or to compete with AG10 for binding	
5′AGGAAGGGGG 3′ (DNA, 5' {Pso}, backbone not given here; triplex-forming oligonucleotide) [AG10, 10 base homopurine oligonucleotide capable of forming a triple strand at positions 167–176 in the supF gene]	Binding of labelled AG10 to the added supF DNA was demonstrated; also recorded: bound specifically to the supF gene	competed with the ^32P-labelled AG10	
COc1c2occc2cc2ccc(=O)oc12 [8-methoxypsoralen]			none of them occur at position 167; also recorded: none were found to occur at base pair 167
